Experimental data: patent US20220030866A1, “CONJUGATES OF AUXIN ANALOGS” (The State of Israel, Ministry of Agriculture & Rural …, priority 2019, published 2022)

What was measured:
Format in all cases: in vivo
DR5:venus marker = experiment: auxin activity by DR5:venus fluorescence in Arabidopsis plants; details: 10 μM
Procedure: Imaging was performed using an SP8 Leica confocal microscope including solid-state lasers producing 405, 488, 514 and 552 nm light, and hybrid or PMT detectors. Objectives were either PL APO 20×/0.75, WD 0.62 mm or PL APO 63×/1.2 WD 0.3 mm. For fluorescence measurements, the Imaris™ spot detection option (Bitplane A.G.) was used to segment nuclei and calculate the average signal intensity.
One technique for assessing auxin activity of the 4-CPA amino acid conjugates utilized plants expressing nucleus-localized, fluorescent DR5:venus marker, the expression level of which is an indicator of intracellular auxin activity [Laskowski et al., PLoS Biol 2008, 6:e307]. Four days old seedlings grown on regular MS medium were transferred to plates containing 10 μM of the tested compounds and fluorescence was inspected by confocal microscope after 24 hours.
In order to assess the ability of the abovementioned sodium salts to penetrate the cells and activate an auxin response, an Arabidopsis DR5-Venus model was utilized (as described hereinabove). The plants were exposed to 10 μM of each compound for 24 hour; MS medium was used as a negative control, and the related Compounds 1p, 1r and 1t were used as positive controls.

cannabis clone = experiment: rooting of a difficult to root cannabis clone; details: 6000 ppm IBA with 50 μM compound for 1 minute; 2 weeks; vs IBA alone
Procedure: Cannabis is usually an easy to root plant. […] A relatively difficult to root cannabis clone was treated with 6000 ppm IBA or with a similar treatment combined with 50 μM of Compound 82 (4-CPA-L-Trp sodium salt) for 1 minute. Rooting was scored after 2 weeks.

[1] = system: argan (Argania spinosa) cuttings; experiment: rooting of argan cuttings; details: after 1.5 months; compound with IBA, or IBA control
Procedure: The ability of exemplary conjugates to promote rooting in plants which are recalcitrant to rooting (in addition to the results obtained with Eucalyptus grandis in Example 3) was examined using cuttings of argan (Argania spinosa) and jojoba (Simmondsia chinensis) in a commercial nursery (Shorashim). The argan and jojoba cuttings were treated with 100 μM of a conjugate (any of Compounds 10-1t) with 6000 ppm IBA. The common treatment T-8 (talc with 8000 ppm IBA and a fungicide) or 6000 ppm IBA (without conjugate) served as a control.
Exemplary conjugates were also tested for rooting the hard-to-root species of avocado (VC801 rootstock) and argan, according to procedures described hereinabove.

[2] = system: avocado rootstock cuttings; experiment: rooting of avocado rootstock cuttings; details: VC801 rootstock
Summary of the method: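 Green cuttings of avocado rootstock (including hard-to-root VC801) were treated with auxin conjugates in the presence of IBA and scored for rooting.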

[3] = system: transgenic citrus rootstocks; experiment: rooting of transgenic citrus rootstocks in tissue culture; details: 0% without compound, data not shown
Source text: Compound 82 was also used to induce rooting of transgenic citrus rootstocks in tissue culture. It is well known that shoots created in tissue culture conditions following genetic modifications are typically difficult to root. Using Compound 82, 60% rooting was obtained, as compared to 0% without Compound 82 (data not shown).

`O=C(COc1ccc(Cl)cc1)N[C@@H](Cc1c[nH]c2ccccc12)C(=O)[O-].[Na+]` [Compound 82, 4-CPA-L-Trp sodium salt] was tested, and the “DR5 fluorescence (auxin activity), in words” value (DR5:venus marker) was “about as active as their non-water soluble methyl esters”, the “number of roots in cannabis, in words” value (cannabis clone) was “significant increase in number of roots” and the “rooting percentage in cannabis, in words” value (cannabis clone) was “small increase in the rooting percentage”. For the same compound, the “rooting in argan clone YM3” value [1] was 80%, the “roots per cutting in argan clone YM3” value [1] was “about 7” and the “root architecture / root length of VC801 avocado cuttings compared to IBA control, in words” value [2] was “considerably increased root length”. The “rooting of transgenic citrus rootstocks” value [3] was 60%.
